≈ marks a conversion by molar mass, not a printed value.
Assays:
[1] = Displacement of [35S]TBPS from GABA-A receptor in Sprague-Dawley rat cerebral cortex cell membranes after 90 mins in presence of GABA by liquid scintillation counting
[2] = target: T1, GABA-A receptor; alpha-1/beta-2/gamma-2 (Homo sapiens, UniProt P14867+P18507+P47870); test: (§1) Positive allosteric modulation of GABAA receptor alpha1beta2gamma2 (unknown origin) expressed in mouse LTK cells assessed as potentiation of GABA-mediated increase in channel current under holding potential at -80 mV preincubated for 30 secs followed by GABA stimulation for 2 secs by automated patch clamp assay; assay type: cell-based
T1 sequence (P14867 whole entry): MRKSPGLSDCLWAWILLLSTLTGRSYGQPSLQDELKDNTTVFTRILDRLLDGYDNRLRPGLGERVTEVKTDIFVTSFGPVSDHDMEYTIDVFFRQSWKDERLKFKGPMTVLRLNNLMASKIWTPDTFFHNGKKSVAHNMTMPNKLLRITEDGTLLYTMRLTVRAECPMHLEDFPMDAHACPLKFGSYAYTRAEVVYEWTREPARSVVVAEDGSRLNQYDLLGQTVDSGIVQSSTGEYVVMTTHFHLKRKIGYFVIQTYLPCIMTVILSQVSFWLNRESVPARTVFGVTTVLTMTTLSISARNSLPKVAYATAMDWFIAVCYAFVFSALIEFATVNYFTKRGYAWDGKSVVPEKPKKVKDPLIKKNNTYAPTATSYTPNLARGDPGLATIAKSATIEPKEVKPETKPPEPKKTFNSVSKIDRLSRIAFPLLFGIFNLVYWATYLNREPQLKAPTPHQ
T1 sequence (P47870 whole entry): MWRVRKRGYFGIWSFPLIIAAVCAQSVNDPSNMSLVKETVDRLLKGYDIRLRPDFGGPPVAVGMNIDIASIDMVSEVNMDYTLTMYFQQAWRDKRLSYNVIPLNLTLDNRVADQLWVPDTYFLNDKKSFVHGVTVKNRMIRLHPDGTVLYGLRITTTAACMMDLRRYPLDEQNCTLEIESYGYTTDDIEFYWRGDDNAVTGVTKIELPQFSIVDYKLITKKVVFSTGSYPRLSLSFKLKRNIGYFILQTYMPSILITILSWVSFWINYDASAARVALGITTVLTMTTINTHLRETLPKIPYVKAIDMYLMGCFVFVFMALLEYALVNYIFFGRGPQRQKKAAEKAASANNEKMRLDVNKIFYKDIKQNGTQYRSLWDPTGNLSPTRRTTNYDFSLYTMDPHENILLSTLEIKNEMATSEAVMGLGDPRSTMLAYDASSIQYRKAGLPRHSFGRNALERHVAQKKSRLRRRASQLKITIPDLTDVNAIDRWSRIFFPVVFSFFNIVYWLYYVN
T1 sequence (P18507 whole entry): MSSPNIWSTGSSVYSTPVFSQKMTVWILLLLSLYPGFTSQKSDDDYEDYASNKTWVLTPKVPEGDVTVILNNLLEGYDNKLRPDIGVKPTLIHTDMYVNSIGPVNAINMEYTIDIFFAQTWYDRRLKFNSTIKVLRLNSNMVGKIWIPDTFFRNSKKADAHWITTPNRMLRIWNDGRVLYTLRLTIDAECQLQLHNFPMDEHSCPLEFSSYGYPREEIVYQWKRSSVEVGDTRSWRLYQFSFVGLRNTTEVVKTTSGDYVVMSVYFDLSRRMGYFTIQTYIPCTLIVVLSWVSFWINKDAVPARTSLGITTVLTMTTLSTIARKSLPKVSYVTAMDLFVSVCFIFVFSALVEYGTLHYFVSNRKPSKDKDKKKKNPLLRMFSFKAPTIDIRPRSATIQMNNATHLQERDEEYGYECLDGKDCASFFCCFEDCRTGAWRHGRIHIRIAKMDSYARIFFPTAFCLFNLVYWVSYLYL

[3] = target: GABA-A receptor; alpha-1/beta-2/gamma-2 (Homo sapiens) (UniProt P14867+P47870+P18507); test: as §1, with “mV at 0.01 to 10 uM” for “mV”, “assay relative to GABA” for “assay”; assay type: cell-based
[4] = target: Gamma-aminobutyric acid receptor subunit alpha-4/beta3/delta (Homo sapiens, UniProt O14764+P28472+P48169); test: as §1, with “alpha4beta3delta” for “alpha1beta2gamma2”, “CHO” for “mouse LTK”, “manual” for “automated”; assay type: cell-based
[5] = target: GABA-A receptor alpha-4/beta-3/delta (Homo sapiens, UniProt P28472+P48169+); test: as §1, with “alpha4beta3delta” for “alpha1beta2gamma2”, “CHO” for “mouse LTK”, “mV at 0.01 to 10 uM” for “mV”, “manual” for “automated”, “assay relative to GABA” for “assay”; assay type: cell-based; conditions: 2 s
[6] = Lipophilicity, logD of compound at 20 uM at pH 7.4 by HPLC/MS-MS analysis; assay type: physicochemical; conditions: buffer
[7] = Thermodynamic aqueous solubility of compound at 10 uM sonicated for 1 min followed by incubation for 1 hr by HPLC-MS/MS; assay type: physicochemical; conditions: buffer; read-out: Therm_solubility
[8] = Clearance in human hepatic microsomes at 10 uM preincubated for 5 mins followed by NADPH addition measured over 60 mins by HPLC-MS/MS analysis; assay type: ADME, Microsome; conditions: liver microsomes
[9] = Clearance in rat hepatic microsomes at 10 uM preincubated for 5 mins followed by NADPH addition measured over 60 mins by HPLC-MS/MS analysis; assay type: ADME, Microsome; conditions: liver microsomes
[10] = Clearance in mouse hepatic microsomes at 10 uM preincubated for 5 mins followed by NADPH addition measured over 60 mins by HPLC-MS/MS analysis; assay type: ADME, Microsome; conditions: liver microsomes
[11] = Clearance in Sprague-Dawley rat at 5 mg/kg, iv or 20 mg/kg, po measured up to 8 hrs post dose by LC/MS-MS analysis; assay type: ADME, organism-based; conditions: in vivo
[12] = Clearance in CD1 mouse at 5 mg/kg, iv or 20 mg/kg, po measured up to 8 hrs post dose by LC/MS-MS analysis; assay type: ADME, organism-based; conditions: in vivo
[13] = Oral bioavailability in Sprague-Dawley rat at 20 mg/kg measured up to 8 hrs post dose by LC/MS-MS analysis; assay type: ADME, organism-based; conditions: in vivo
[14] = Oral bioavailability in CD1 mouse at 20 mg/kg measured up to 8 hrs post dose by LC/MS-MS analysis; assay type: ADME, organism-based; conditions: in vivo
[15] = Ratio of drug level in Sprague-Dawley rat brain to plasma at 5 mg/kg, iv measured at 30 mins post dose by LC/MS-MS analysis; assay type: ADME, organism-based; conditions: read-out: BPR
[16] = Ratio of drug level in CD1 mouse brain to plasma at 5 mg/kg, iv measured at 30 mins post dose by LC/MS-MS analysis; assay type: ADME, organism-based; conditions: read-out: BPR

Gamma-aminobutyric acid receptor subunit alpha-4/beta3/delta, sequence (P28472 whole entry): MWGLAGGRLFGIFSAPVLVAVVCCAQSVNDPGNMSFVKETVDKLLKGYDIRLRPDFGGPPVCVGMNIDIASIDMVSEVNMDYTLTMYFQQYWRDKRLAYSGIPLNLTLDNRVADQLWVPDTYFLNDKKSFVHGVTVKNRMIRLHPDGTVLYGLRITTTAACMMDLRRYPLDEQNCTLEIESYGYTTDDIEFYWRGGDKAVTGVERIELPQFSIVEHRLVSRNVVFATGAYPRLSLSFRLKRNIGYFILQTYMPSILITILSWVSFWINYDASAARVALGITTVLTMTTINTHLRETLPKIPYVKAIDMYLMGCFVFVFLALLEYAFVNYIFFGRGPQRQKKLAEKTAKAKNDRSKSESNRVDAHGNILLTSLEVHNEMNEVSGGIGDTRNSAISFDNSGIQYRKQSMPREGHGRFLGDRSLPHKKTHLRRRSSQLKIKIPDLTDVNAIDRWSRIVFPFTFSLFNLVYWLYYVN
Gamma-aminobutyric acid receptor subunit alpha-4/beta3/delta, sequence (P48169 whole entry): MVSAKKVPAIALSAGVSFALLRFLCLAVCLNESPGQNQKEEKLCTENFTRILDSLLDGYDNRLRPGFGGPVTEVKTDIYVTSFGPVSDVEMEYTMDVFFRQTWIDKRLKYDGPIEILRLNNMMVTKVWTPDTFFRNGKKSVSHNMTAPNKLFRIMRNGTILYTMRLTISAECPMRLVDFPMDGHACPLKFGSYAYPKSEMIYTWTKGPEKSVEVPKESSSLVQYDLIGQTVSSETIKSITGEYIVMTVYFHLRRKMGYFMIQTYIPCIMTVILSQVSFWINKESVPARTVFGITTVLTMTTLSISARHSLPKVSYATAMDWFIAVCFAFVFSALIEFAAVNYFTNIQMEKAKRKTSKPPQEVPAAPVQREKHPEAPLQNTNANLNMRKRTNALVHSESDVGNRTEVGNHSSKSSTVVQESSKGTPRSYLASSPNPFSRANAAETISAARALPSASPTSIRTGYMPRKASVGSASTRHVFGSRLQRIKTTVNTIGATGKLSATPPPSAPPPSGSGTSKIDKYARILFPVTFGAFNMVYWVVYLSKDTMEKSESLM
Gamma-aminobutyric acid receptor subunit alpha-4/beta3/delta, sequence (O14764 whole entry): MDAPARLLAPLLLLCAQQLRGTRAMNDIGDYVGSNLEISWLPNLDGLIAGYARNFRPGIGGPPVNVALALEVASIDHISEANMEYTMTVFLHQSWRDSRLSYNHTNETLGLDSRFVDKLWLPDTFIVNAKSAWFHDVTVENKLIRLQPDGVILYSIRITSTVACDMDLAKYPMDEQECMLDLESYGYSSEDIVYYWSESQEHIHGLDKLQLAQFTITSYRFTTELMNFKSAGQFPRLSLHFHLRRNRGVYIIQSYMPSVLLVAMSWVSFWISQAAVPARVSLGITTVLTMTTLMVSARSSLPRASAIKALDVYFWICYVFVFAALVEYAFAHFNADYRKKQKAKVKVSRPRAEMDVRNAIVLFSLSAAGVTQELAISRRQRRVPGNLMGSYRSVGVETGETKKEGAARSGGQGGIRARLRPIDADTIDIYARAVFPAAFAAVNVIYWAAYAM
GABA-A receptor alpha-4/beta-3/delta, sequence (P28472 whole entry): as the sequence (P28472 whole entry) above
GABA-A receptor alpha-4/beta-3/delta, sequence (P48169 whole entry): as the sequence (P48169 whole entry) above
GABA-A receptor alpha-4/beta-3/delta, sequence (Q06278 whole entry, further chain): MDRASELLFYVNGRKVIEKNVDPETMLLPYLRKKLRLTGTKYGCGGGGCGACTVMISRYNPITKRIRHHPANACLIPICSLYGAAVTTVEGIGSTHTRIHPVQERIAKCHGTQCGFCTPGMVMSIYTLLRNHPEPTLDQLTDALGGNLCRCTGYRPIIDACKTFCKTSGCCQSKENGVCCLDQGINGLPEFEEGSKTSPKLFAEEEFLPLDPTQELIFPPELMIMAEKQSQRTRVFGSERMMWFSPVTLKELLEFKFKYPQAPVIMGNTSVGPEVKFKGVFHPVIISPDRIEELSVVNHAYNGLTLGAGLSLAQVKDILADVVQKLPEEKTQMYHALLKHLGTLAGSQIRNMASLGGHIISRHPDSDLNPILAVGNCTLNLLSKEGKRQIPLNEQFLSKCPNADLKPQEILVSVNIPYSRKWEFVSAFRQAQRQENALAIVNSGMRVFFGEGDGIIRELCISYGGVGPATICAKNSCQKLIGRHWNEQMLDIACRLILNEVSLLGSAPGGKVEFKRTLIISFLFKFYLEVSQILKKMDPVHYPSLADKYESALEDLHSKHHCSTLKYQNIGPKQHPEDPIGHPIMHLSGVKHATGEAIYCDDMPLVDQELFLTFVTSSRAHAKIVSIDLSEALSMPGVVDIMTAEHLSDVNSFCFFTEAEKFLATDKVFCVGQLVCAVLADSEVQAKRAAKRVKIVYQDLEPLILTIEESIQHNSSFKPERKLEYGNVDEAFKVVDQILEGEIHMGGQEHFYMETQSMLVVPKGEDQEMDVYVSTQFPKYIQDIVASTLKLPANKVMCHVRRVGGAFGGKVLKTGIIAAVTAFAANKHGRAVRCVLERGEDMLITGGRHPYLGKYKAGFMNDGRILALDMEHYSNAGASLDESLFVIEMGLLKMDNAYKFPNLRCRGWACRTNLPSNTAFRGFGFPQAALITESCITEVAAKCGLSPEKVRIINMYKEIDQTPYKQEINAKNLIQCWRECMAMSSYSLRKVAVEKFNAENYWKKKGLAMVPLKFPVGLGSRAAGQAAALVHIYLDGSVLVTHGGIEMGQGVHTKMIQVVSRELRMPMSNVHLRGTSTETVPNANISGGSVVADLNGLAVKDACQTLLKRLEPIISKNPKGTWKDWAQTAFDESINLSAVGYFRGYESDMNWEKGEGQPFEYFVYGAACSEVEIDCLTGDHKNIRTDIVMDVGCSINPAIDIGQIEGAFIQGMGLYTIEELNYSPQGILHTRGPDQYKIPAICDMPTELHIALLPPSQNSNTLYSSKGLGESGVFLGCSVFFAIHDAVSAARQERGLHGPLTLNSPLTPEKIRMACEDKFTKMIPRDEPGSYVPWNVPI

**Q.** For C[C@@]1(O)CC[C@H]2[C@H](CC[C@@H]3[C@@H]2CC[C@]2(C)[C@@H](C(=O)Cn4ccc(C#N)n4)CC[C@@H]32)C1, which IC50 [1] is on record?
**A.** 13 nM

**Q.** What about the EC50 [2] of the same compound?
**A.** 225 nM

**Q.** What about the Emax [3] of the same compound?
**A.** 725%

**Q.** And the EC50 [4]?
**A.** 110 nM

**Q.** What about the Emax [5] of the same compound?
**A.** 330%

**Q.** And the logD at 20 µM [6]?
**A.** 4.6

**Q.** And the solubility thermodynamic at 1 h, 10 µM [7]?
**A.** 1.9 µM (≈ 0.778 µg/mL)

**Q.** What about the CLhep predicted at 10 µM [8] of the same compound?
**A.** 5 mL/min/kg

**Q.** And the CLhep predicted at 10 µM [9]?
**A.** 41.7 mL/min/kg

**Q.** What about the CLhep predicted at 10 µM [10] of the same compound?
**A.** 83.3 mL/min/kg

**Q.** And the clearance [11]?
**A.** 25 mL/min/kg

**Q.** And the clearance [12]?
**A.** 43.3 mL/min/kg

**Q.** And the bioavailability [13]?
**A.** 56%

**Q.** And the bioavailability [14]?
**A.** 26%

**Q.** What about the Kp at 0.5 h [15] of the same compound?
**A.** 1.9

**Q.** What about the Kp at 0.5 h [16] of the same compound?
**A.** 1.4

— ChEMBL document CHEMBL4038335, “Neuroactive Steroids. 2. 3α-Hydroxy-3β-methyl-21-(4-cyano-1H-pyrazol-1'-yl)-19-nor-5β-pregnan-20-one (SAGE-217): A Clinical Next Generation Neuroactive Steroid Positive Allosteric Modulator of the (γ-Aminobutyric Acid)A Receptor” (J Med Chem, 2017)
